What is called IC50 is the concentration at which inhibition is half-maximal. Broadly, the inhibition is the change of the read-out against control, counted positive when it falls. Higher therefore signals a strong effect.

For assay [1], the system named is KB-V1 (Homo sapiens). As to the kind of experiment: Compound was tested for the cytotoxicity against KB-V1 cell line expressing P-glycoprotein.
The test system of assay [2] is KB 3-1. Description: Compound was tested for the cytotoxicity against KB-3-1 cell line. The assay is classed as functional, cell-based. Particulars: Homo sapiens.
In assay [3] the test system is KB. Description: Compound was tested for the cytotoxicity against KB-8-5 cell line expressing P-glycoprotein. The assay is classed as functional, cell-based. The following applies: Homo sapiens.
Assay [4] has as its system Tubulin. As to the kind of experiment: Compound was evaluated for the inhibition of MAP-rich tubulin polymerisation at 0.3 uM.
The test system of assay [5] is KB. As to the kind of experiment: Compound was tested for the cytotoxicity against KB-8-5 cell line expressing P-glycoprotein; value ranges from 1.2-5 nM. The assay is classed as functional, cell-based. Particulars: Homo sapiens.
The test system of assay [6] is KB 3-1. As to the kind of experiment: Compound was tested for the cytotoxicity against KB-3-1 cell line; value ranges from 0.6-2 nM. The following applies: Homo sapiens. The assay is classed as functional, cell-based.
For assay [7], the system named is KB 3-1. As to the kind of experiment: Compound was tested for the cytotoxicity against KB-3-1 cell line; value ranges from 2-6 nM. Particulars: Homo sapiens. The assay is classed as functional, cell-based.
Assay [8] has as its system KB. Description: Compound was tested for the cytotoxicity against KB-8-5 cell line expressing P-glycoprotein; value ranges from 30-80 nM. The assay is classed as functional, cell-based. The following applies: Homo sapiens.

With `CN[C@H](C(=O)N[C@H](C(=O)N(C)[C@H](/C=C(\C)C(=O)O)C(C)C)C(C)(C)SC)C(C)(C)c1ccccc1`, the IC50 in assay [1] is 144 nM; in assay [2] it was 1.2 nM; in assay [3], 2.2 nM.
With `CN[C@H](C(=O)N[C@H](C(=O)N(C)[C@H](/C=C(\C)C(=O)O)C(C)C)C(C)(C)SCc1ccc(OC)cc1)C(C)(C)c1ccc(OC)cc1`, the IC50 in assay [1] amounted to 2090 nM; in assay [2], 15.8 nM; in assay [3], 43.7 nM. In addition, in assay [4], the inhibition amounted to 77%.
For `CN[C@H](C(=O)N[C@H](C(=O)N(C)[C@H](/C=C(\C)C(=O)O)C(C)C)C(C)(C)O)C(C)(C)c1ccccc1`, the concentration for half-maximal inhibition (IC50) in assay [1] is greater than 3000 nM; in assay [2] it was 57.9 nM; in assay [3], 95 nM. The compound further returned an inhibition in assay [4] of 84%.
On to `CN[C@H](C(=O)N[C@H](C(=O)N(C)[C@H](/C=C(\C)C(=O)O)C(C)C)C(C)(C)C)C(C)(C)c1ccccc1` [TALTOBULIN], for which the values for the IC50 in assay [5] and in assay [6] were 5 nM and 2 nM, respectively.
With `CN[C@H](C(=O)N[C@H](C(=O)N(C)[C@H](/C=C(\C)C(=O)O)C(C)C)C(C)(C)F)C(C)(C)c1ccccc1`, the figures for the IC50 in assay [1], in assay [2] and in assay [3] were 117 nM, 1.6 nM and 3.5 nM, respectively. The compound also displayed an inhibition in assay [4] of 91%.
For `CN[C@H](C(=O)N[C@H](C(=O)N(C)[C@H](/C=C(\C)C(=O)O)C(C)C)C(C)(C)c1ccc(OC)cc1)C(C)(C)c1ccccc1`, in that order: 1790 nM, 25.5 nM, 54.9 nM and 56%.
`CN[C@H](C(=O)N[C@H](C(=O)N(C)[C@H](/C=C(\C)C(=O)O)C(C)C)C(C)OC)C(C)(C)c1ccccc1` (some centres not stated): the IC50 is greater than 3000 nM in assay [1], 871 nM in assay [2] and 1740 nM in assay [3]. In assay [4], the inhibition came to 95%.
On to `CC(=O)O[C@H]1C(=O)[C@@]2(C)[C@H]([C@H](OC(=O)c3ccccc3)[C@]3(O)C[C@H](OC(=O)[C@H](O)[C@@H](NC(=O)c4ccccc4)c4ccccc4)C(C)=C1C3(C)C)[C@]1(OC(C)=O)CO[C@@H]1C[C@@H]2O` [PACLITAXEL], for which the IC50 was 6 nM in assay [7], greater than 3000 nM in assay [1] and 80 nM in assay [8].
For the compound `CN[C@H](C(=O)N[C@H](C(=O)N(C)[C@H](/C=C(\C)C(=O)O)C(C)C)C(C)(C)S(C)(=O)=O)C(C)(C)c1ccccc1`, the IC50 in assay [1] is greater than 3000 nM; in assay [2], 178 nM; in assay [3], 589 nM. Besides, the inhibition in assay [4] was 87%.
For `CN[C@H](C(=O)N[C@H](C(=O)N(C)[C@H](/C=C(\C)C(=O)O)C(C)C)C(C)(C)SCc1ccc(OC)cc1)C(C)(C)c1ccccc1`, in that order: 2290 nM, 58.8 nM, 93.7 nM and 94%.
As to `CN[C@H](C(=O)N[C@H](C(=O)N(C)[C@H](/C=C(\C)C(=O)O)C(C)C)C(C)(C)SC)C(C)(C)c1ccc(OC)cc1`, the IC50 in assay [1] came out at 62.4 nM; in assay [2] it was 0.64 nM; in assay [3] it was 1.8 nM. Further, the inhibition in assay [4] came out at 88%.
With `CN[C@H](C(=O)N[C@H](C(=O)N(C)[C@H](/C=C(\C)C(=O)O)C(C)C)C(C)(C)[S+](C)[O-])C(C)(C)c1ccccc1` (some centres not stated), the IC50 in assay [1], in assay [2] and in assay [3] was greater than 3000 nM in each case. Also, the inhibition in assay [4] amounted to 43%.
Regarding `CN[C@H](C(=O)N[C@H](C(=O)N(C)[C@H](/C=C(\C)C(=O)O)C(C)C)C(C)O)C(C)(C)c1ccccc1` (some centres not stated), the IC50 in assay [1] is greater than 3000 nM; in assay [2], 275 nM; in assay [3], 692 nM. This compound also had an inhibition in assay [4] of 91%.
Consider `CN[C@H](C(=O)N[C@@H](C(=O)N(C)[C@H](/C=C(\C)C(=O)O)C(C)C)C(C)O)C(C)(C)c1ccccc1` (some centres not stated), for which the IC50 in assay [1], in assay [2] and in assay [3] was greater than 3000 nM in each case. This compound gave an inhibition in assay [4] of 9%.
